According to patent US11834448B2, “2-amino-quinoline derivatives” (BIRDIE BIOPHARMACEUTICALS, INC., priority 2017, dated 2023):

Key:
Human PBMCs [1] = experiment: Cytokine production in PBMCs: human IL-6 by ELISA; type: cell-based; set-up: key: ″+″ means that there was production of IFNa or IL-6 on PBMC; ″−″means that noproduction of IFNa or IL-6 on PBMC was detected; conditions: compounds tested at concentration of 10 uM; human PBMCs cultured 20-22 hours; supernatant ELISA
Protocol: (§1) The compound functionality was tested for some of the compounds prepared by stimulation and determination of cytokine production in PBMCs.
(§2) Human PBMCs were prepared from buffy coat obtained from healthy volunteer donor by Ficoll centrifugation and were adjusted to the final cell concentration to 1×10^6 cells/mL.
(§3) For evaluation of compound activities, 1×10^5 PBMCs were plated in a 96-well plate in 100 μl of RPMI 1640 complete medium (cat no. 31800-022, GIBCO by Life Technologies, Grand Island, NY, USA) supplemented with 10% fetal bovine serum, the tested compound was first dissolved in DMSO and further diluted in PBS and RPMI 1640 medium to the final concentration of […] (corresponding to 6.28 μg/mL), then 3-fold serially dilution was made in a 96-well round-bottom plate. 100 μl diluted compound was added to the same volume of 1×10^5 PBMCs plate and cultured for 20-22 hours at 37° C. in a humidified atmosphere of 5% CO2. The supernatant was collected for human IFN-α, IL12(p70) and IL-6 analysis by ELISA assay according to the manufacturer's instructions (Mabtech AB, Sweden). Resiquimod was used as a positive control.

Human PBMCs [2] = experiment: Cytokine production in PBMCs: human IFN-α by ELISA; type: cell-based; set-up: key: ″+″ means that there was production of IFNa or IL-6 on PBMC; ″−″means that noproduction of IFNa or IL-6 on PBMC was detected; conditions: compounds tested at concentration of 10 uM; human PBMCs cultured 20-22 hours; supernatant ELISA
Protocol: as §1, §2, §3

CCOCc1nc2c(N)nc3cccc(OCCCCNS(C)(=O)=O)c3c2n1C [Compound 22, N-(4-((4-amino-2-(ethoxymethyl)-1-methyl-1H-imidazo[4,5-c]quinolin-9-yl)oxy)butyl)methanesulfonamide]
Production of IL−6 on PBMC (Human PBMCs [1]): +
Production of IFNa on PBMC (Human PBMCs [2]): +

CCOCc1nc2c(N)nc3cccc(OC)c3c2n1CC(C)(C)O [Compound 1, 1-(4-amino-2-(ethoxymethyl)-9-methoxy-1H-imidazo[4,5-c]quinolin-1-yl)-2-methylpropan-2-ol]
Production of IL−6 on PBMC (Human PBMCs [1]): +
Production of IFNa on PBMC (Human PBMCs [2]): +

CCOCc1nc2c(N)nc3cccc4c3c2n1C[C@](C)(O)CO4 [Compound 42, (S)-2-amino-12-(ethoxymethyl)-6-methyl-6,7-dihydro-5H-3,4-(azenometheno)[1,5]oxazocino[4,3,2-de]quinolin-6-ol]
Production of IL−6 on PBMC (Human PBMCs [1]): +
Production of IFNa on PBMC (Human PBMCs [2]): +

CCOCc1nc2c(N)nc3cccc(OCCCCNC(C)=O)c3c2n1C [Compound 24, N-(4-((4-amino-2-(ethoxymethyl)-1-methyl-1H-imidazo[4,5-c]quinolin-9-yl)oxy)butyl)acetamide]
Production of IL−6 on PBMC (Human PBMCs [1]): +
Production of IFNa on PBMC (Human PBMCs [2]): +

CCOCc1nc2c(N)nc3cccc(OCC(C)O)c3c2[nH]1 (centres unmarked) [Compound 8, 1-((4-amino-2-(ethoxymethyl)-1H-imidazo[4,5-c]quinolin-9-yl)oxy)propan-2-ol]
Production of IL−6 on PBMC (Human PBMCs [1]): +
Production of IFNa on PBMC (Human PBMCs [2]): +

CCOCc1nc2c(N)nc3cccc(OC4CCNC4)c3c2n1C (centres unmarked) [Compound 28, 2-(ethoxymethyl)-1-methyl-9-(pyrrolidin-3-yloxy)-1H-imidazo[4,5-c]quinolin-4-amine]
Production of IL−6 on PBMC (Human PBMCs [1]): +
Production of IFNa on PBMC (Human PBMCs [2]): +

CCOCc1nc2c(N)nc3cccc(OCC(C)C)c3c2n1C [Compound 18, 2-(ethoxymethyl)-9-isobutoxy-1-methyl-1H-imidazo[4,5-c]quinolin-4-amine]
Production of IL−6 on PBMC (Human PBMCs [1]): +
Production of IFNa on PBMC (Human PBMCs [2]): +

CCOCc1nc2c(N)nc3cccc(OC(C)C)c3c2n1C [Compound 37, 2-(ethoxymethyl)-9-isopropoxy-1-methyl-1H-imidazo[4,5-c]quinolin-4-amine]
Production of IL−6 on PBMC (Human PBMCs [1]): +
Production of IFNa on PBMC (Human PBMCs [2]): +

CC(C)CCn1cc2c(n1)c(N)nc1cccc(O)c12 [Compound 31, 4-amino-2-isopentyl-2H-pyrazolo[3,4-c]quinolin-9-ol]
Production of IL−6 on PBMC (Human PBMCs [1]): −
Production of IFNa on PBMC (Human PBMCs [2]): −

CCOCc1nc2c(N)nc3cccc(OC4CCOC4)c3c2n1C (centres unmarked) [Compound 27, 2-(ethoxymethyl)-1-methyl-9-((tetrahydrofuran-3-yl)oxy)-1H-imidazo[4,5-c]quinolin-4-amine]
Production of IL−6 on PBMC (Human PBMCs [1]): +
Production of IFNa on PBMC (Human PBMCs [2]): +
